The target in one assay is T1, cPLA2 (Homo sapiens, UniProt P47712).
T1 sequence (P47712 1-749): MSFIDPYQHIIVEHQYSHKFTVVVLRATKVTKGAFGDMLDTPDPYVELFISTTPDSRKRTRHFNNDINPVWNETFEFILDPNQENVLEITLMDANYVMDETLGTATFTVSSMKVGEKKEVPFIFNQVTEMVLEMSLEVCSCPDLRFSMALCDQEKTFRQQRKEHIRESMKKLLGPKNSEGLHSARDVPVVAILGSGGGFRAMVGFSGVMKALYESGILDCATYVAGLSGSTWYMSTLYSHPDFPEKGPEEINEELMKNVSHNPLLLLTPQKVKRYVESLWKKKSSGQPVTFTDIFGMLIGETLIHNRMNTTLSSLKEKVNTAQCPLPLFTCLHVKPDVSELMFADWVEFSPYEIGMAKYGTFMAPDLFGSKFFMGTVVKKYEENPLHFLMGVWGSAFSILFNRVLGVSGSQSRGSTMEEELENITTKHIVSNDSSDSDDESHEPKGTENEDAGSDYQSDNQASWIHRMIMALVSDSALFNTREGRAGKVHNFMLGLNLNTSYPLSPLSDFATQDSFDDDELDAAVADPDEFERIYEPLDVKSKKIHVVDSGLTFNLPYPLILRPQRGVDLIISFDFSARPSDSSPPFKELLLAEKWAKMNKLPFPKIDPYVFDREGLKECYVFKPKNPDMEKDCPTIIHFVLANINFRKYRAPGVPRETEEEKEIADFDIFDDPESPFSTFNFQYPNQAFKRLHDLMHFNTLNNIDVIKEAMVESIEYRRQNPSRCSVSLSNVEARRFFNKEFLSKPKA
Briefly: cPLA2 Inhibitory Activity. The assay is classed as biochemical. The following applies: 1-palmitoyl-2-[14C]-arachidonoyl-sn-glycero-3-phosphocholine 2.5 μM, sn-1,2-dioleoylglycerol 1.25 μM; pH 7.5, 15 min at 37° C. Put shortly: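 Radiometric assay in 50 mM HEPES pH 7.5 with 1 mM CaCl2, 150 mM NaCl, 0.1 mg/ml BSA and 1.7 mM DTT; compound and substrate added, reaction started with enzyme, 15 min at 37° C. Released fatty acids extracted (Dole method), counted by liquid scintillation versus no-compound control.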

Assay [1] deals with production of prostaglandin E2 by human fibroblasts. Briefly: Inhibition of Production of Prostaglandin E2 in Human Fibroblasts (IL-1 stimulation). Conditions: Fibroblast; human fibroblasts under stimulation with IL-1. The assay is classed as cell-based. The procedure, abridged:
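Human fibroblasts stimulated with IL-1, with prostaglandin E2 production measured in the presence of compound as a cellular read-out of cPLA2 inhibition.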

As for `O=C1NC(=O)/C(=C/c2ccc(C(=O)NC[C@@H]3C[C@@H](CCc4ccccc4-c4ccccc4)CN3C(=O)c3ccccc3C(=O)c3ccc(F)cc3)cc2)S1` [Compound O-3], the IC50 amounted to 55 nM at cPLA2 and 1100 nM in assay [1].

In the case of `O=C1NC(=O)/C(=C/c2ccc(C(=O)NC[C@H]3C[C@@H](SCc4ccccc4-c4ccccc4)CN3C(=O)c3ccccc3C(=O)c3ccc(F)cc3)cc2)S1` [Compound Q-1], the IC50 was 2510 nM at cPLA2 and 1200 nM in assay [1].

With `O=C1NC(=O)/C(=C/c2ccc(C(=O)NC[C@H]3C[C@@H](OCc4ccccc4-c4ccccc4)CN3C(=O)c3ccccc3C(=O)c3ccc(F)cc3)cc2)S1` [Compound Q-2], the values for the IC50 (against cPLA2; in assay [1]) were 1810 nM and 1400 nM, respectively.

Regarding `O=C1NC(=O)/C(=C/c2ccc(C(=O)NC[C@@H]3C[C@H](OCc4ccccc4-c4ccccc4)CN3C(=O)c3ccccc3C(=O)c3ccc(F)cc3)cc2)S1` [Compound Q-3], the IC50 was determined as 200 nM against cPLA2 and 490 nM in assay [1].

`O=C1NC(=O)/C(=C/c2ccc(C(=O)NC[C@H]3C[C@H](SCc4ccccc4-c4ccccc4)CN3C(=O)c3ccccc3C(=O)c3ccc(F)cc3)cc2)S1` [Compound Q-4]: the IC50 against cPLA2 turned out to be 1850 nM; in assay [1], 950 nM.

Take `O=C1NC(=O)/C(=C/c2ccc(C(=O)NC[C@H]3C[C@H](OCc4ccccc4-c4ccccc4)CN3C(=O)c3ccccc3C(=O)c3ccc(F)cc3)cc2)S1` [Compound Q-5]: the IC50 against cPLA2 came to 1920 nM; in assay [1] it was 1300 nM.

These data come from patent US6147100A, “Pyrrolidine derivatives having phospholipase A2 inhibitory activity” (Shionogi & Co., Ltd., priority 1997, dated 2000).
